Structures are written as SMILES.

What all share (assay type): cell-based
Assay [1] concerns the target T1, Human AR (Homo sapiens (Human), UniProt P10275). Description: AR antagonist assay (GRE-LUC luciferase, transfected HEK-293 cells, with 0.1 nM R1881). To be noted: for IC50: with 0.1 nM R1881. How it is done:
(§1) Human AR cDNA cloned into pCMV vector, GRE-LUC, and CMV-renilla-LUC were used to transfect cells. HEK-293 cells (ATCC) were plated at 120,000 cells per well of a 24 well plate in DME+5% csFBS (Fisher Scientific, Waltham, Mass.). The cells were transfected using Lipofectamine (Life Technologies, Carlsbad, Calif.) with 0.25 μg GRE-LUC, 0.010 μg CMV-LUC (renilla luciferase) and 25 ng of the AR. […] Luciferase assay was performed 48 hrs after transfection. Firefly luciferase assay values were normalized to renilla luciferase values and were graphed using graphpad prism software (La Jolla, Calif.). […] The IC50 or EC50 values were determined using non-linear regression and […] logistics fitting.

In assay [2] the target is T1, Human AR. Description: AR agonist assay (GRE-LUC luciferase, transfected HEK-293 cells, test article alone). To be noted: HEK-293 transfected with human AR, read-out: AR Agonist IC50. On the procedure: as §1
The target in the next assay is GR (Homo sapiens (Human), UniProt P04150). Description: GR antagonist assay (GRE-LUC luciferase, transfected COS-7 cells, with 0.1 nM dexamethasone). Particulars: in the presence of 0.1 nM dexamethasone. On the procedure:
COS-7 cells (ATCC, Manassas, Va.) were plated in 24 well plates in DME+5% csFBS without phenol red at 70,000 cells/well. Once the cells attached to the plates (typically after overnight incubation after plating), they were transfected in OPTIMEM medium (Life Technologies) using lipofectamine reagent (Life Technologies) with 0.25 μg GRE-LUC, 25 ng pCR3.1 GR, and 10 ng CMV-renilla LUC per well. Twenty-four hours after transfection, the cells were fed with DME+5% csFBS without phenol red (Fisher Scientific, Waltham, Mass.) and treated with the test compounds (1 pM to 10 μM dose range) in the presence of 0.1 nM dexamethasone (Sigma, St. Louis, Mo.). Sixteen to twenty-four hours after treatment, a luciferase assay was performed using the Dual Luciferase assay kit (Promega, Madison, Wis.). Firefly luciferase values were normalized to Renilla luciferase numbers.

The subject of another assay is LNCaP-abl cells. The assay is described as follows: Cell proliferation assay, LNCaP-abl (CellTiter-Glo). To be noted: 72 h, 3 days; for activity at 3 µM: read-out: cell proliferation, % of vehicle at 3 μM; for activity at 10 µM: read-out: cell proliferation, % of vehicle at 10 μM. How it is done: LNCaP-abl (3,000 cells/well, received from Dr. Myles Brown, Dana Farber Cancer Institute), 22RV1 (1,000 cells/well), LNCaP (5,000 cells/well), or COS (3,000 cells/well) cells were plated in 96 well plates in 50 μl RPMI+10% FBS (Fisher Scientific, Waltham, Mass.). LNCaP, COS, and 22RV1 cells were obtained from ATCC. Cells were treated in RPMI+10% FBS with test articles, ranging from 1 nM to 10 μM. Three days later, viable cells (LNCaP-abl, 22RV1, and COS) were measured by CellTiter-Glo assay (Promega, Madison, Wis.). For LNCaP cells, medium containing test article was changed after 3 days of treatment, and after an additional 3 days of culture, viable cells were measured by CellTiter-Glo assay.
The LNCaP cell line is androgen responsive with AR and PSA expression. It contains a T877A mutation in the AR. The 22RV1 cell line is positive for AR and PSA with additional AR splice variants and is insensitive to androgen for cell proliferation. The LNCaP-abl cell line expresses both AR and GR but is insensitive to androgen for cell proliferation. COS-7 is used as an AR negative cell line in this experiment.

The target in a further assay is GFP-AR (Homo sapiens (Human), UniProt P10275). How it is done: COS cells plated in chamber slides in DME+5% csFBS without phenol red were transfected with […] GFP-AR using lipofectamine reagent.
Sequence of GFP-AR (P10275 whole entry, looked up): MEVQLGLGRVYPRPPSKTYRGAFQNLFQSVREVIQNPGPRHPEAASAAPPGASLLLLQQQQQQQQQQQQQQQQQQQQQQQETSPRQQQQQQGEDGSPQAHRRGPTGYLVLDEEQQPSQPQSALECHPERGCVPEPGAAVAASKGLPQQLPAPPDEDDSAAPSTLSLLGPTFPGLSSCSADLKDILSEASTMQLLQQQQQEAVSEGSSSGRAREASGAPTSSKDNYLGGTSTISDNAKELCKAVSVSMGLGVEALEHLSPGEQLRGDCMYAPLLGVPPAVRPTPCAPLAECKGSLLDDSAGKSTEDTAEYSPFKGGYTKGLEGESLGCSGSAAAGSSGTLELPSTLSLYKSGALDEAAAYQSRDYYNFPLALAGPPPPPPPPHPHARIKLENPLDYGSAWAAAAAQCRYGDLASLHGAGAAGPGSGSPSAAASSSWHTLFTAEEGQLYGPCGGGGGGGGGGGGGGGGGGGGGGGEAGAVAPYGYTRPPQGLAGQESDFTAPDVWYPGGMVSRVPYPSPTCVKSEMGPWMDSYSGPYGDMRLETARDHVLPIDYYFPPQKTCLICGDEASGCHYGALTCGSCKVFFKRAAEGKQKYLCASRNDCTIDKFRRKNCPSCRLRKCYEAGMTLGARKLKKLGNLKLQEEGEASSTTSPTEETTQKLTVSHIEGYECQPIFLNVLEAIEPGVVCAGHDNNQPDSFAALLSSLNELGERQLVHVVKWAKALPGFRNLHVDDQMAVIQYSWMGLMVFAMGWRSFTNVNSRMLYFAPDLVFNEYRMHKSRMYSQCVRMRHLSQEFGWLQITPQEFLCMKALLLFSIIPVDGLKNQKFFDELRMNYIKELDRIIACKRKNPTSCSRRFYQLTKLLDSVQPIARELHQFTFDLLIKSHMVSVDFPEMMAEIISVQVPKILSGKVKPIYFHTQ

T1 sequence (P10275 whole entry): as the sequence (P10275 whole entry, looked up) above
Sequence of GR (P04150 whole entry): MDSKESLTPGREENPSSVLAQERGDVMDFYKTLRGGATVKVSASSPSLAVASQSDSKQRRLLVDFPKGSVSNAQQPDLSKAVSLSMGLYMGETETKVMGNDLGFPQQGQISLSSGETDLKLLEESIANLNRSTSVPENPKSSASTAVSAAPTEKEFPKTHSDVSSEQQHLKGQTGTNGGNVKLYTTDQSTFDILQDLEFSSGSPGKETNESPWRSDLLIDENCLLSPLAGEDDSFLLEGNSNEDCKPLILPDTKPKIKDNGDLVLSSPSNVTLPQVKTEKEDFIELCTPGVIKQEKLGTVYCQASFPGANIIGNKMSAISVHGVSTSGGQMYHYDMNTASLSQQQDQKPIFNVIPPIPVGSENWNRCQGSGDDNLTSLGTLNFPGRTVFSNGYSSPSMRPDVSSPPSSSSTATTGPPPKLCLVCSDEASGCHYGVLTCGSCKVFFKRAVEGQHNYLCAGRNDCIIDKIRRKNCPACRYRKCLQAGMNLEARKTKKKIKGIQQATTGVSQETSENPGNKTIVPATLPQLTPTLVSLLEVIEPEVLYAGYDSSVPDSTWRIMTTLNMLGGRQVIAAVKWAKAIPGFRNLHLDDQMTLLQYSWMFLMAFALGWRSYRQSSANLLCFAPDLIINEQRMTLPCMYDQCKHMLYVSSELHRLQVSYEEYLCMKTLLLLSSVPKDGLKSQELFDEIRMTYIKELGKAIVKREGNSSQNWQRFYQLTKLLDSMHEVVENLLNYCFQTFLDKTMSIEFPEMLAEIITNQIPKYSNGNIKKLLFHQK

In the case of `CC1(C)C(=O)N(c2ccc(C#N)c(C(F)(F)F)c2)C(=S)N1c1ccc(CNC(=O)c2cncs2)cc1` [Compound 18], the results for the IC50 against Human AR [1] and at GR were 358 nM and > 10000 nM, respectively. On Human AR [2], the EC50 was > 10000 nM.
`Cn1ccnc1C(=O)NCc1ccc(N2C(=O)N(c3ccc(C#N)c(C(F)(F)F)c3)C(=O)C2(C)C)cc1F` [Compound 1]: the IC50 on Human AR [1] is 968 nM. The EC50 at Human AR [2] was > 10000 nM.
On to `Cn1ccnc1C(=O)NCc1ccc(N2C(=S)N(c3ccc(C#N)c(C(F)(F)F)c3)C(=O)C2(C)C)cc1F` [Compound 4], for which, on Human AR [1], the IC50 is 386 nM. On Human AR [2], the EC50 is > 10000 nM.
`CC1(C)C(=O)N(c2ccc(C#N)c(C(F)(F)F)c2)C(=S)N1c1ccc(CNC(=O)c2cccnc2)c(F)c1` [Compound 12]: the IC50 on Human AR [1] is 108 nM; on GR, > 10000 nM. For the same molecule, the activity at 3 µM in the assay on LNCaP-abl cells came to 95%. In addition, in the assay with LNCaP-abl cells, the activity at 10 µM was 61%. For the same molecule, the EC50 at Human AR [2] was > 10000 nM.
At Human AR [1], `CC(C)(C)C(=O)NCc1ccc(N2C(=S)N(c3ccc(C#N)c(C(F)(F)F)c3)C(=O)C2(C)C)cc1F` [Compound 6] yielded a concentration for half-maximal inhibition (IC50) of 778 nM. For the same molecule, in the assay on LNCaP-abl cells, the activity at 3 µM was 79% and the activity at 10 µM is 101%. Moreover, on Human AR [2], the EC50 was > 10000 nM. In addition, at GR, the IC50 was > 10000 nM.
On Human AR [1], `CC1(C)C(=O)N(c2ccc(C#N)c(C(F)(F)F)c2)C(=O)N1c1ccc(CNC(=O)c2cccnc2)c(F)c1` [Compound 29] returned a half-maximal inhibitory concentration (IC50) of 910 nM. In the assay on LNCaP-abl cells, the activity at 3 µM was 90% and the activity at 10 µM turned out to be 92%. Further, at GR, the IC50 was > 10000 nM.
Regarding `Cc1ncsc1C(=O)NCc1ccc(N2C(=S)N(c3ccc(C#N)c(C(F)(F)F)c3)C(=O)C23CCC3)cc1F` [Compound 65], half-maximal inhibition at Human AR [1] (IC50) was put at 64 nM. Further, in the assay with LNCaP-abl cells, the activity at 3 µM stood at 94% and the activity at 10 µM worked out at 83%. For the same molecule, the half-inhibitory concentration (IC50) on GR was > 10000 nM.
`C[C@]1(O)CC[C@H]2[C@@H]3CCC4=CC(=O)CCC4=C3C=C[C@@]21C` [Compound R1881, reference compound]: on GFP-AR, the “AR localization (cytoplasmic or nuclear)” value is given as “nuclear”.
`CC1(C)C(=O)N(c2ccc(C#N)c(C(F)(F)F)c2)C(=S)N1c1ccc(CNC(=O)c2nccs2)c(F)c1` [Compound 2] registered an IC50 against Human AR [1] of 31 nM. Further, in the assay on LNCaP-abl cells, the activity at 3 µM was determined as 78% and the activity at 10 µM is 71%. Also, on GR, the IC50 is > 10000 nM.
For `CC1(C)C(=O)N(c2ccc(C#N)c(C(F)(F)F)c2)C(=S)N1c1ccc(CNC(=O)c2cncnc2)c(F)c1` [Compound 15] the same measures were 320 nM, 81%, 70% and > 10000 nM.
The molecule `CC1(C)C(=O)N(c2ccc(C#N)c(C(F)(F)F)c2)C(=S)N1c1ccc(CNC(=O)c2cncs2)c(Cl)c1` [Compound 25] gave an IC50 on Human AR [1] of 99 nM. Moreover, in the assay on LNCaP-abl cells, the activity at 3 µM came out at 96% and the activity at 10 µM was found to be 64%. The IC50 at GR was > 10000 nM.
On Human AR [1], `Cc1ncsc1C(=O)NCc1ccc(N2C(=S)N(c3ccc(C#N)c(C(F)(F)F)c3)C(=O)C2(C)C)cc1` [Compound 39] showed an IC50 of 200 nM. Besides, in the assay on LNCaP-abl cells, the activity at 3 µM was found to be 90% and the activity at 10 µM is 87%. In addition, the IC50 at GR was > 10000 nM.
In the same order, the values of `Cc1ncsc1C(=O)NCc1ccc(N2C(=S)N(c3cnc(C#N)c(C(F)(F)F)c3)C(=O)C2(C)C)cc1Cl` [Compound 38] are 240 nM, 59%, 56% and > 10000 nM.
Regarding `CC1(C)C(=O)N(c2ccc(C#N)c(C(F)(F)F)c2)C(=S)N1c1ccc(CNC(=O)C2CC2)c(F)c1` [Compound 11], at Human AR [1], half-maximal inhibition (IC50) was put at 120 nM. In addition, in the assay with LNCaP-abl cells, the activity at 3 µM stood at 103% and the activity at 10 µM stood at 79%. For the same molecule, the concentration for half-maximal inhibition (IC50) at GR was > 10000 nM.
For `CC1(C)C(=O)N(c2cnc(C#N)c(C(F)(F)F)c2)C(=S)N1c1ccc(CNC(=O)c2cncs2)c(Cl)c1` [Compound 36] the same measures were 580 nM, 82%, 59% and > 10000 nM.
In the same order, the values of `CC1(C)C(=O)N(c2ccc(C#N)c(C(F)(F)F)c2)C(=S)N1c1ccc(CNC(=O)c2cncs2)c(F)c1` [Compound 5] are 93 nM, 99%, 96% and > 10000 nM.
In turn, `CC(C)C(=O)NCc1ccc(N2C(=S)N(c3ccc(C#N)c(C(F)(F)F)c3)C(=O)C2(C)C)cc1F` [Compound 7] yielded an IC50 against Human AR [1] of 180 nM. Further, in the assay with LNCaP-abl cells, the activity at 3 µM was 67% and the activity at 10 µM is 73%. Further, the IC50 at GR is > 10000 nM.
For `CC1(C)C(=O)N(c2ccc(C#N)c(C(F)(F)F)c2)C(=S)N1c1ccc(CNC(=O)c2ncccn2)cc1` [Compound 19], the IC50 on Human AR [1] is 453 nM; at GR, > 10000 nM. Moreover, the EC50 on Human AR [2] was > 10000 nM.
On to `Cn1nccc1C(=O)NCc1ccc(N2C(=S)N(c3ccc(C#N)c(C(F)(F)F)c3)C(=O)C23CCC3)cc1F` [Compound 73], for which the IC50 at Human AR [1] came to 92 nM; on GR, 2960 nM. Moreover, the activity at 3 µM with LNCaP-abl cells was determined as 79%. Besides, the activity at 10 µM with LNCaP-abl cells turned out to be 66%.
For the molecule `Cc1ncsc1C(=O)NCc1ccc(N2C(=S)N(c3ccc(C#N)c(F)c3)C(=O)C2(C)C)cc1F` [Compound 68], 120 nM corresponded to half-maximal inhibition at Human AR [1] (IC50). Moreover, in the assay with LNCaP-abl cells, the activity at 3 µM came out at 89% and the activity at 10 µM stood at 85%. For the same molecule, the “GR antagonist assay, % of vehicle” value on GR (10 μM) is 84%.
Turning to `CC1(C)C(=O)N(c2ccc(C#N)c(F)c2)C(=S)N1c1ccc(CNC(=O)c2ccccn2)c(F)c1` [Compound 69], the IC50 against Human AR [1] turned out to be 380 nM. In the assay on LNCaP-abl cells, the activity at 3 µM came to 77% and the activity at 10 µM amounted to 81%. Besides, on GR, the IC50 is > 10000 nM.
On to `Cc1ncsc1C(=O)NCc1ccc(N2C(=S)N(c3cccc(C(F)(F)F)c3)C(=O)C2(C)C)cc1F` [Compound 76, N-(4-(5,5-dimethyl-4-oxo-2-thioxo-3-(3-(trifluoromethyl)phenyl)-imidazolidin-1-yl)-2-fluorobenzyl)-4-methylthiazole-5-carboxamide], for which the 50% inhibitory concentration (IC50) against Human AR [1] is > 10000 nM; at GR it was 3310 nM. Further, the activity at 3 µM in the assay on LNCaP-abl cells worked out at 72%. The activity at 10 µM in the assay on LNCaP-abl cells was 88%.
For `Cn1nccc1C(=O)NCc1ccc(N2C(=S)N(c3ccc(C#N)c(C(F)(F)F)c3)C(=O)C2(C)C)cc1F` [Compound 42], the inhibition at 1 µM against Human AR [1] (HEK293) turned out to be 95%. Also, it took 77 nM to reach half-maximal inhibition at Human AR [1] (IC50). Besides, in the assay on LNCaP-abl cells, the activity at 3 µM amounted to 98% and the activity at 10 µM was found to be 60%. The IC50 at GR is > 10000 nM.

Values taken from US11292782B2, “Diarylhydantoin compounds and methods of use thereof” (Nuvation Bio Inc., priority 2018, dated 2022).
